Results from patent US20150209313A1 (priority 2014, published 2015).
Entries after “also recorded” stand apart in the source; their conditions may differ. Read-outs that look alike come from different tables or passages of the source.

Columns and labels:
[1] = target: neuraminidase, Influenza Virus A/California/07/2009 H1N1 (Oseltamivir sensitive) (Influenza A virus (A/California/07/2009(H1N1)), UniProt C3W6G3); assay type: biochemical
[2] = system: Influenza Virus A/California/07/2009 H1N1; assay type: cell-based
[3] = system: Influenza Virus A/Maryland/04/2011 H1N1; assay type: cell-based

`CCOC(=O)C1=C[C@@H](OC(CC)CC)[C@H](NC(C)=O)[C@@H](N)C1` [Oseltamivir] was tested, and the “Average Fluorescence” value ([1]; 0.005 nM) was 66385.00, the “Average Fluorescence” value ([1]; 0.05 nM) was 56340.00 and the “Average Fluorescence” value ([1]; 0.5 nM) was 32060.00. For the same compound, the “Average Fluorescence” value ([1]; 5 nM) was 7802.00, the “Average Fluorescence” value ([1]; 50 nM) was 1215.00 and the “Average Fluorescence” value ([1]; 500 nM) was 354.00. For the same compound, the “Average Fluorescence” value ([1]; 5,000 nM) was 179.00, the “Average Fluorescence” value ([1]; 50,000 nM) was 365.00 and the “plaque inhibitory effect (in words)” value [2] was “sensitive to this drug to 1 μM; also recorded: inhibitory effects”. For the same compound, the “plaque inhibitory effect (in words)” value [3] was “only partially sensitive; also recorded: reduced oseltamivir susceptibility”.
